Laboratory results: patent publication US7820201B2, “System for manufacturing controlled release dosage forms, such as zero-order release profile dosage form manufactured by three-dimensional printing” (Massachusetts Institute of Technology, priority 2001, dated 2010)
Read-outs that look alike come from different tables or passages of the source.

Conditions: for ko, best fit rate constant for equation 9: Co 280 mgAPI/cc, 3-D release, simulated intestinal fluid pH 7.4, 37° C.
Excerpt: The concentration C0 refers to the amount of API per unit volume in the dosage form after compression.
Each of the API release curves in FIG. 16 was fit to Equation 9 by performing a least-squares fit between the empirical data and model. This was done to determine the relevance of the model, and to determine rate constants for the powder/API systems for later use. […] For this purpose, the rate constants in the two different directions were assumed to be equal.
The erosion rate constants are given in units of mg/hr cm^2 where mg is mg of API released into the dissolution fluid. R^2 is a statistical measure of correlation, with a value of 1 indicating perfect correlation.

linear erosion rate constant delta r/delta t (70% Lactose: 30% HPMC conventional tablets): 0.341 mm/hr
ko, best fit rate constant for equation 9 (Lactose:HPMC 60:40, 100 mg API): 6.092 mg/hr · cm^2
ko, best fit rate constant for equation 9 (Lactose:HPMC 70:30, 100 mg API): 9.540 mg/hr · cm^2
ko, best fit rate constant for equation 9 (Lactose:HPMC 80:20, 100 mg API): 22.238 mg/hr · cm^2
Compound: O=C(O)Cc1ccccc1Nc1c(Cl)cccc1Cl [diclofenac sodium]
